US20260083865A1, “PROSTATE SPECIFIC MEMBRANE ANTIGEN (PSMA) LIGANDS AND USE THEREOF” (priority 2022, published 2026)
Read-outs that look alike come from different tables or passages of the source. Values belong to the compound of their own block, whether it stands above or below them. Numbered stars: 1 amine (or outer) side, 2 acyl side, 3 side chain; on linkers, the order of the positions; unused ones are H or OH. Bridge positions count the residues as written; N and C are the ends. Square brackets hold non-standard residues; d marks the D form. Side chains are listed from the residue outwards. Peptide text beside a SMILES is read from it. * marks the point of attachment. X9 = C=C(N([C@@H](Cc1ccc(Cl)cc1)C(=O)[*:2])[*:1])C(C)(C)NC(=O)[C@@H](NC(C)=O)[C@@H](C)O; X3 = O=C(O)CN1CCN(CC(=O)O)CCN(CC(=O)NCCCOCCOCCOCCCN*)CCN(CC(=O)O)CC1; DOTA = O=C(O)CN1CCN(CC(=O)O)CCN(CC(=O)*)CCN(CC(=O)O)CC1; Ala(quinolin-3-yl) = N[C@@H](Cc1cnc2ccccc2c1)C(=O)O; Phe(4-Cl) = N[C@@H](Cc1ccc(Cl)cc1)C(=O)O; Arg(Me) = CNC(=N)NCCC[C@H](N)C(=O)O; X1 = O=C(CC1CCN([*:1])CC1)[*:2]; Cit = NC(=O)NCCC[C@H](N)C(=O)O; Lys(Me) = CNCCCC[C@H](N)C(=O)O; NMeK = CN[C@@H](CCCCN)C(=O)O; Suc = O=C(CCC(=O)[*:2])[*:1]; Tle = CC(C)(C)[C@H](N)C(=O)O; AEEA = NCCOCCOCC(=O)O; Aib = CC(C)(N)C(=O)O; βAla = NCCC(=O)O

Assays:
[1] = biological target: T1, Fc-fusion protein of human PSMA (hPSMA-Fc) (Homo sapiens, UniProt Q04609); assay: Surface plasmon resonance assay (Biacore T200, single cycle kinetic); assay type: binding; conditions: read-out: pKD CAT (converted)
T1 construct: purchased Acro Biosystems PSA-H5264
In short: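 KD, expressed as pKD, came from 1:1 Langmuir fits of reference- and buffer-blank-subtracted SPR data. The runs were single-cycle kinetics at 25° C in HBST/0.1% DMSO over human PSMA-Fc, captured to ~1000 RU on a peptide-coated CM5 surface and regenerated with 10 mM glycine pH 1.5.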

[2] = biological target: T2, PSMA-expressing C4-2 cells (Homo sapiens, UniProt Q04609); assay: FACS binding assay (competition with 50 nM PSM-0183); conditions: read-out: pIC50 [C4-2] CAT (converted)
T2 construct: PSMA-expressing C4-2 cells (ATCC, Cat. No. CRL-3314) were cultured in RPMI-1640; host or cells: C4-2 cells
In short: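 Competition format: fluorescent tracer PSM-0183 (50 nM) displaced from PSMA on C4-2 cells by a test compound titration over 1 h at 4 °C. Bound tracer was quantified as flow-cytometric AF488 median fluorescence after washing. Four-parameter logistic fits of MFI data gave IC50 and pIC50.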

[3] = pKD category for PSMA SPR activity assay, hPSMA-Fc, 25° C.
[4] = pIC50 category of FACS binding, C4-2 cells
[5] = SPR, hPSMA-Fc, single cycle kinetic, 25° C., category
[6] = FACS binding, C4-2 cells, competition with 50 nM PSM-0183, category
[7] = PSMA SPR assay, hPSMA-Fc, 25° C., pKD category
[8] = FACS binding, PSMA-expressing C4-2 cells, pIC50 category

T1 sequence (Q04609 44-750 limits assumed): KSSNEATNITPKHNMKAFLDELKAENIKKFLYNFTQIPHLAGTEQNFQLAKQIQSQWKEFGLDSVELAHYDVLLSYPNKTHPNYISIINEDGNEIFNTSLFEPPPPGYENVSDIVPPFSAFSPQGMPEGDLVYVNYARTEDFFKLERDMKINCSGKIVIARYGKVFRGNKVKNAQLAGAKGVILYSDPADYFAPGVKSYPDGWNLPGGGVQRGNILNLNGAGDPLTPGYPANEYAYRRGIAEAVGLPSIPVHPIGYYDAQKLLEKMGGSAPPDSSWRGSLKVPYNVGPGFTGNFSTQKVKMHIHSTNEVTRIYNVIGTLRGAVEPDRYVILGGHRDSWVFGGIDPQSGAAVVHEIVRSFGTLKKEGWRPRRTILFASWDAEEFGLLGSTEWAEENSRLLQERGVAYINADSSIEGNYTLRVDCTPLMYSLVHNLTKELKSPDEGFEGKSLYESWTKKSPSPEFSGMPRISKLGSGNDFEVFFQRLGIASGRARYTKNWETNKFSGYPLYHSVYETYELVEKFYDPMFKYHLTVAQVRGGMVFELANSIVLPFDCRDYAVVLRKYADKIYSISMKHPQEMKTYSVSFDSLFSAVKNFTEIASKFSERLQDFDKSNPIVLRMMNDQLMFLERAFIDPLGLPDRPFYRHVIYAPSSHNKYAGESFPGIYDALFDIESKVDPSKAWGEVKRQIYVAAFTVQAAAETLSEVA
T2 sequence (Q04609 whole entry): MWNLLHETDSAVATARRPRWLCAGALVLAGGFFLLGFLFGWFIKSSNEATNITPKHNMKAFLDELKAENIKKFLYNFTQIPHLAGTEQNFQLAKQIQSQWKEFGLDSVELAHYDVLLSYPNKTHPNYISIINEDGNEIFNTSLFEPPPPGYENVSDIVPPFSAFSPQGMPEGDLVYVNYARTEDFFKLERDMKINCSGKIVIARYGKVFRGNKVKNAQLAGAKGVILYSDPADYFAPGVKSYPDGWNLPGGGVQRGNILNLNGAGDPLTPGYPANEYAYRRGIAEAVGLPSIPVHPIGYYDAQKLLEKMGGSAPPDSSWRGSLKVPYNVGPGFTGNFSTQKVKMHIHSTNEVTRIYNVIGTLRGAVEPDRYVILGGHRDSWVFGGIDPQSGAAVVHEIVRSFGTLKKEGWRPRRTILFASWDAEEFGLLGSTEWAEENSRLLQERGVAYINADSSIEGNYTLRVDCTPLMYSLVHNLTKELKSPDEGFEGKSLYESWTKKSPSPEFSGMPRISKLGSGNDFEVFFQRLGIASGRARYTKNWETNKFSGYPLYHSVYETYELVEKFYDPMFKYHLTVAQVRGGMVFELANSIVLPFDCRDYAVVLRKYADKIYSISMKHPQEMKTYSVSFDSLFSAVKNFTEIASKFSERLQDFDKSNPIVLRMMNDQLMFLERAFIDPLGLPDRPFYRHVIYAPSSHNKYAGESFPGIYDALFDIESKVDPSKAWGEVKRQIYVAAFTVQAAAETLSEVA

Structure (SMILES): C=C(N[C@@H](Cc1ccc(Cl)cc1)C(=O)N[C@H]1CSSC[C@@H](C(=O)N[C@H](C(=O)N[C@H](C(N)=O)[C@@H](C)O)C(C)(C)C)NC(=O)[C@H](CCCNC(=N)N)NC(=O)C(C)(C)NC(=O)[C@H](CCCNC(N)=O)NC(=O)[C@H](CCCCN)NC1=O)C(C)(C)NC(=O)[C@@H](NC(C)=O)[C@@H](C)O [PSM-0240, Ac-Thr-Aib-Pcf-[Cys-Lys-Cit-Aib-Arg-Cys]-Tle-Thr-NH2] (H-[X9]CK[Cit][Aib]RC[Tle]T-NH2; disulfide 2-7)
Kd [1, 5]: < 0.0126 µM | IC50 [2, 6]: < 0.2 µM

Structure (SMILES): CC(=O)N[C@H](C(=O)NC(C)(C)C(=O)N[C@@H](Cc1ccccc1)C(=O)N[C@H]1CSSC[C@@H](C(=O)N[C@H](C(=O)N[C@H](C(=O)N[C@@H](CC(=O)O)C(N)=O)[C@@H](C)O)C(C)(C)C)NC(=O)[C@H](CC(N)=O)NC(=O)C(C)(C)NC(=O)[C@H](CCC(=O)O)NC(=O)[C@H](CCCCN)NC1=O)[C@@H](C)O [PSM-0253, Ac-Thr-Aib-Phe-[Cys-Lys-Glu-Aib-Asn-Cys]-Tle-Thr-Asp-NH2] (Ac-T[Aib]FCKE[Aib]NC[Tle]TD-NH2; disulfide 4-9)
Kd [1, 5]: 0.126 to 0.501 µM | IC50 [2, 6]: 0.2 to 1.26 µM

Structure (SMILES): CC(=O)N[C@@H](Cc1ccc(Cl)cc1)C(=O)N[C@H]1CSSC[C@@H](C(=O)N[C@H](C(N)=O)C(C)(C)C)NC(=O)[C@H](CC(N)=O)NC(=O)C(C)(C)NC(=O)[C@H](CCCNC(=N)N)NC(=O)[C@H](CCCCN)NC1=O [PSM-0281, Ac-Pcf-[Cys-Lys-Arg-Aib-Asn-Cys]-Tle-NH2] (Ac-[Phe(4-Cl)]CKR[Aib]NC[Tle]-NH2; disulfide 2-7)
Kd [1, 7]: > 0.501 µM | IC50 [2, 8]: > 3.16 µM

Structure (SMILES): CC(=O)N[C@H](C(=O)NC(C)(C)C(=O)N[C@@H](Cc1ccccc1)C(=O)N[C@H]1CSSC[C@@H](C(=O)N[C@H](C(=O)N[C@H](C(N)=O)[C@@H](C)O)C(C)(C)C)NC(=O)[C@H](CC(N)=O)NC(=O)[C@H](CCCCNC(=O)COCCOCCNC(=O)CN2CCN(CC(=O)O)CCN(CC(=O)O)CCN(CC(=O)O)CC2)NC(=O)[C@H](CCCNC(=N)N)NC(=O)[C@H](CCCCN)NC1=O)[C@@H](C)O [PSM-0401, Ac-Thr-Aib-Phe-[Cys-Lys-Arg-Lys(DOTA-020c)-Asn-Cys]-Tle-Thr-NH2] (Ac-T[Aib]FCKRK([AEEA-DOTA])NC[Tle]T-NH2; disulfide 4-9)
Kd [1, 3]: < 0.0126 µM | IC50 [2, 4]: < 0.2 µM

Structure (SMILES): CNCCCC[C@@H]1NC(=O)[C@@H](NC(=O)[C@H](Cc2cnc3ccccc3c2)NC(=O)C(C)(C)NC(=O)[C@@H](NC(=O)CC2CCN(C(=O)CN3CCN(CC(=O)O)CCN(CC(=O)O)CCN(CC(=O)O)CC3)CC2)[C@@H](C)O)CSSC[C@@H](C(=O)N[C@H](C(=O)N[C@H](C(N)=O)[C@@H](C)O)C(C)(C)C)NC(=O)[C@H](CC(N)=O)NC(=O)C(C)(C)NC(=O)[C@H](CCCNC(=N)NC)NC1=O [PSM-0337, DOTA-Cmp-Thr-Aib-2Qi-[Cys-Lys(Me)-Arg(Me)-Aib-Asn-Cys]-Tle-Thr-NH2] ({DOTA}-[X1]T[Aib][Ala(quinolin-3-yl)]C[Lys(Me)][Arg(Me)][Aib]NC[Tle]T-NH2; disulfide 5-10)
Kd [1, 7]: > 0.501 µM | IC50 [2, 8]: 1.26 to 3.16 µM

Further lines, results first:

Kd [1, 3]: < 0.0126 µM | IC50 [2, 4]: < 0.2 µM
Structure (SMILES): CC(=O)N[C@H](C(=O)NC(C)(C)C(=O)N[C@@H](Cc1ccccc1)C(=O)N[C@H]1CSSC[C@@H](C(=O)N[C@H](C(=O)N[C@H](C(N)=O)[C@@H](C)O)C(C)(C)C)NC(=O)[C@H](CC(N)=O)NC(=O)[C@H](CCCCNC(=O)CCC(=O)NCCCOCCOCCOCCCNC(=O)CN2CCN(CC(=O)O)CCN(CC(=O)O)CCN(CC(=O)O)CC2)NC(=O)[C@H](CCCNC(=N)N)NC(=O)[C@H](CCCCN)NC1=O)[C@@H](C)O [PSM-0465, Ac-Thr-Aib-Phe-[Cys-Lys-Arg-Lys(DOTA-Ttds)-Asn-Cys]-Tle-Thr-NH2] (Ac-T[Aib]FCKRK([Suc-X3])NC[Tle]T-NH2; disulfide 4-9)

Kd [1, 3]: 0.0126 to 0.126 µM | IC50 [2, 4]: 0.2 to 1.26 µM
Structure (SMILES): CC(=O)N[C@H](C(=O)NC(C)(C)C(=O)N[C@@H](Cc1ccccc1)C(=O)N[C@H]1CSSC[C@@H](C(=O)N[C@H](C(=O)N[C@H](C(N)=O)[C@@H](C)O)C(C)(C)C)NC(=O)[C@H](CC(N)=O)NC(=O)C(C)(C)NC(=O)[C@H](CCCNC(=N)N)NC(=O)[C@H](CCCCN)N(C)C1=O)[C@@H](C)O [PSM-0451, Ac-Thr-Aib-Phe-[Cys-Nmk-Arg-Aib-Asn-Cys]-Tle-Thr-NH2] (Ac-T[Aib]FC[NMeK]R[Aib]NC[Tle]T-NH2; disulfide 4-9)

Kd ([1]; PSMA SPR assay, category): < 0.0126 µM | IC50 ([2]; FACS binding, C4-2 cells, category): < 0.2 µM
Structure (SMILES): CNCCCC[C@@H]1NC(=O)[C@@H](NC(=O)[C@H](Cc2ccc(Cl)cc2)NC(=O)C(C)(C)NC(=O)[C@@H](NC(=O)CC2CCN(C(=O)CN3CCN(CC(=O)O)CCN(CC(=O)O)CCN(CC(=O)O)CC3)CC2)[C@@H](C)O)CSSC[C@@H](C(=O)N[C@H](C(=O)NCCC(N)=O)C(C)(C)C)NC(=O)[C@H](CC(N)=O)NC(=O)C(C)(C)NC(=O)[C@H](CCCNC(=N)NC)NC1=O [PSM-606] ({DOTA}-[X1]T[Aib][Phe(4-Cl)]C[Lys(Me)][Arg(Me)][Aib]NC[Tle][βAla]-NH2; disulfide 5-10)
